Values belong to the compound of their own block, whether it stands above or below them.
Tests used:
[1] = Stability in pharmaceutical solvents / excipients at 30 and 40 °C
[2] = not told
[3] = Plasma concentration after topical application to hairless rats; format: in vivo, hairless rat
[4] = Solubility in water- or oil-based formulations; format: physicochemical

remaining at 240 h ([1]; pharmaceutical solvents): < 90%
SMILES: CC(=C/C(=O)O)/C(=C/c1ccc2cc3c(cc2c1)C(C)(C)CCC3(C)C)c1cccc(C(=O)O)c1 [BMS-188184-05]

shelf life in these solvents ([1]; 30° C., propylene glycol, Transcutol, ethanol SD-40, PEG-8, water): less than 10 days | stability in various pharmaceutical solvents ([1]; propylene glycol, Transcutol, ethanol SD-40, PEG-8, water, 30° C. and 40° C.): poor
SMILES: CC(=C/C(=O)O)/C(=C/c1ccc2cc3c(cc2c1)C(C)(C)CCC3(C)C)c1cccc(C(=O)O)c1 [BMS-188184, (2Z,4Z)-3-methyl-4-(3-carboxyphenyl)-5-[(1,2,3,4-tetrahydro-1,1,4,4-tetramethyl)-6-anthracenyl]-2,4-pentadienoic acid]
long-term (storage) stability in formulations / with permeation enhancers [2]: stable in GEAHLENE base containing mineral oil and in petrolatum ointment containing fatty acid esters

concentration of drug in plasma ([3]; by 6 hours after topical application): below the limit of detection | Cmax ([3]; rat, plasma, topical or ocular, dual system 2% ointment + SLS cream, single topical dose, read-out: peak plasma concentrations): 2400 ng/mL | Tmax ([3]; rat, plasma, topical or ocular, dual system 2% ointment + SLS cream, single topical dose, read-out: time of peak plasma concentrations): 2 h | solubility in water-based or oil-based formulations [4]: soluble
SMILES: CC(=C/C(=O)O)/C(=C/c1ccc2cc3c(cc2c1)C(C)(C)CCC3(C)C)c1cccc(C(=O)O)c1 [BMS-188184-02, (2Z,4Z)-3-methyl-4-(3-carboxyphenyl)-5-[(1,2,3,4-tetrahydro-1,1,4,4-tetramethyl)-6-anthracenyl]-2,4-pentadienoic acid]

solubility in water-based or oil-based formulations [4]: virtually insoluble
SMILES: CC(=C/C(=O)O)/C(=C/c1ccc2cc3c(cc2c1)C(C)(C)CCC3(C)C)c1cccc(C(=O)O)c1 [BMS-188184-01, (2Z,4Z)-3-methyl-4-(3-carboxyphenyl)-5-[(1,2,3,4-tetrahydro-1,1,4,4-tetramethyl)-6-anthracenyl]-2,4-pentadienoic acid]

Reference: patent US6019988A, “Methods and compositions for enhancing skin permeation of drugs using permeation enhancers, when drugs and/or permeation enhancers are unstable in combination during long-term storage” (priority 1996, dated 2000)
